Values joined by “and” are separate entries in the source; they are usually repeats but may differ in a detail not shown here. Equal values may be shown once. Read-outs that look alike come from different tables or passages of the source.

Experiment [1] deals with human A2AR (Homo sapiens, UniProt P29274). Description: In vitro radioligand binding assay with [3H]ZM241385 on membranes of CHO-K1 cells stably transfected with human A2AR. The settings on record: for Ki: in-house, mean ± standard deviation (n ≥ 3) or mean (n = 2, single values in brackets), Cheng-Prusoff.
Experiment [2] has as its target T1, human A1R (Homo sapiens, UniProt P30542).
T1 sequence (P30542 1-326): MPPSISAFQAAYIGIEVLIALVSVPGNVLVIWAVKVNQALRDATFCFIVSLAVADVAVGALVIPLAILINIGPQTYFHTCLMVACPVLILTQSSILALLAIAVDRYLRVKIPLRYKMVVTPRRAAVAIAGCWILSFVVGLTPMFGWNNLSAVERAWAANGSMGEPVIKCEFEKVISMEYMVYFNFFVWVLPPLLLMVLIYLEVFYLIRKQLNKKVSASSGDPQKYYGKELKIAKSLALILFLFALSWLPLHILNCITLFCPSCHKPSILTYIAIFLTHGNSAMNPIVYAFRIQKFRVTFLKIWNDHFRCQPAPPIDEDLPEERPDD
Description: In vitro radioligand binding assay with [3H]DPCPX on membranes of CHO-K1 cells stably transfected with human A1R.

[3] abbreviates: read-out: Ki(hA1R), in-house, mean ± standard deviation (n ≥ 3) or mean (n = 2, single values in brackets), Cheng-Prusoff.

Chain of human A2AR (P29274 whole entry): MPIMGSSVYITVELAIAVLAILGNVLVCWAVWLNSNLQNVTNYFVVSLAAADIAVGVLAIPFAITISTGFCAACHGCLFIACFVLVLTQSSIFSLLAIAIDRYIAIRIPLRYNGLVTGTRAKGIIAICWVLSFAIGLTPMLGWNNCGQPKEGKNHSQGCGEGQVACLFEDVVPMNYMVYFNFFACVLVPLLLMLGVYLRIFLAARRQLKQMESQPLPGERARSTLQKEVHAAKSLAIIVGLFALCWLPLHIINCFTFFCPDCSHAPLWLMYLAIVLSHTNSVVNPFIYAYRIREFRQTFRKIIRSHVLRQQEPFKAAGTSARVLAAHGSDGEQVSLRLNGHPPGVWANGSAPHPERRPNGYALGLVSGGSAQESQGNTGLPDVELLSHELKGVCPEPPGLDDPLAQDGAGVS

For the molecule “1-((6-Fluoropyridin-2-yl)methyl)-4-(furan-2-yl)-1H-pyrazolo[3,4-d]pyrimidin-6-amine [PPY6]”, the Ki in experiment [1] (read-out: Ki(hA2AR)) was 27.1 ± 2.6 nM; in experiment [2] (setting [3]), 566 nM. For “1-((6-Fluoropyridin-3-yl)methyl)-4-(furan-2-yl)-1H-pyrazolo[3,4-d]pyrimidin-6-amine [PPY5]”, in that order: 25.7 ± 0.9 nM and 689 nM. Take “2-((6-Amino-4-(furan-2-yl)-1H-pyrazolo[3,4-d]pyrimidin-1-yl)methyl)-5-fluoro-benzonitrile [PPY12]”: the figures for the Ki in experiment [1] (read-out: Ki(hA2AR)) and in experiment [2] (setting [3]) were 66.7 nM and 810 nM, respectively. As to `Nc1nc(-c2ccco2)c2cnn(Cc3ccc(F)cc3)c2n1` [PPY1, 1-(4-Fluorobenzyl)-4-(furan-2-yl)-1H-pyrazolo[3,4-d]pyrimidin-6-amine], the Ki in experiment [1] (Ki(hA2AR)) was 5.3 nM and 5.29 nM; in experiment [2], 220 nM. Consider `Nc1nc(-c2ccco2)c2cnn(Cc3ccccc3F)c2n1` [PPY2, 1-(2-Fluorobenzyl)-4-(furan-2-yl)-1H-pyrazolo[3,4-d]pyrimidin-6-amine], for which the Ki in experiment [1] (Ki(hA2AR)) was 2.13 ± 0.42 nM; in experiment [1] (read-out: Ki(hA2AR)), 2.1 nM. In experiment [1] (ortho- vs para-fluorine), the “increase of A2AR binding affinity compared with PPY1” value is on record as 2.5 fold. As to `Nc1nc(-c2ccco2)c2cnn(Cc3cccc(F)c3)c2n1` [PPY3, 1-(3-Fluorobenzyl)-4-(furan-2-yl)-1H-pyrazolo[3,4-d]pyrimidin-6-amine], the Ki in experiment [1] (Ki(hA2AR)) is 3.6 ± 1.29 nM; in experiment [2] it was 132 nM. Besides, the “decrease of A2AR binding affinity compared with PPY” value in experiment [1] (chlorine (PPY) exchanged for fluorine) was 3 fold. `Nc1nc(-c2ccco2)c2cnn(Cc3cccnc3F)c2n1` [PPY4, 1-((2-Fluoropyridin-3-yl)methyl)-4-(furan-2-yl)-1H-pyrazolo[3,4-d]pyrimidin-6-amine]: the Ki in experiment [1] (Ki(hA2AR)) turned out to be 47.8 ± 4.8 nM; in experiment [2] it was 822 nM. Taken in the same sequence, the figures for `Nc1nc(-c2ccco2)c2cnn(Cc3ccnc(F)c3)c2n1` [PPY7, 1-((2-Fluoropyridin-4-yl)methyl)-4-(furan-2-yl)-1H-pyrazolo[3,4-d]pyrimidin-6-amine] were 161 ± 19 nM and 2880 nM. Turning to `Nc1nc(-c2ccco2)c2cnn(Cc3ccc(Br)cc3F)c2n1` [PPY8, 1-(4-Bromo-2-fluorobenzyl)-4-(furan-2-yl)-1H-pyrazolo[3,4-d]pyrimidin-6-amine], the results for the Ki in experiment [1] (Ki(hA2AR)) and in experiment [2] were 0.93 ± 0.1 nM and 31.3 ± 15.5 nM, respectively. Besides, the “increase of A2AR binding affinity compared with PPY2” value in experiment [1] (additional bromine) came to 2 fold. As to `Nc1nc(-c2ccco2)c2cnn(Cc3ccc(F)cc3Br)c2n1` [PPY9, 1-(2-Bromo-4-fluorobenzyl)-4-(furan-2-yl)-1H-pyrazolo[3,4-d]pyrimidin-6-amine], the inhibition constant (Ki) in experiment [1] (Ki(hA2AR)) was found to be 34.1 nM.

In the case of `Nc1nc(-c2ccco2)c2cnn(Cc3cc(F)cc(Br)c3)c2n1` [PPY10, 1-(3-Bromo-5-fluorobenzyl)-4-(furan-2-yl)-1H-pyrazolo[3,4-d]pyrimidin-6-amine], the inhibitory constant (Ki) stood at 14.2 nM in experiment [1] (Ki(hA2AR)) and 160 nM in experiment [2].

Consider `Nc1nc(-c2ccco2)c2cnn(Cc3c(F)cccc3Br)c2n1` [PPY11, 1-(2-Bromo-6-fluorobenzyl)-4-(furan-2-yl)-1H-pyrazolo[3,4-d]pyrimidin-6-amine], for which the Ki in experiment [1] (Ki(hA2AR)) was found to be 2.35 ± 0.3 nM; in experiment [2], 162 ± 22 nM.

For the molecule `N#Cc1cc(F)cc(Cn2ncc3c(-c4ccco4)nc(N)nc32)c1` [PPY14, 3-((6-Amino-4-(furan-2-yl)-1H-pyrazolo[3,4-d]pyrimidin-1-yl)methyl)-5-fluoro-benzonitrile], the Ki was 291 nM in experiment [1] (Ki(hA2AR)) and 954 nM in experiment [2].

`Nc1nc(-c2ccco2)c2cnn(Cc3cccc(OCCCF)c3)c2n1` [PPY18, 1-(3-(3-Fluoropropoxy)benzyl)-4-(furan-2-yl)-1H-pyrazolo[3,4-d]pyrimidin-6-amine] registered a Ki in experiment [1] (Ki(hA2AR)) of 76.8 ± 12.9 nM. Still for that read-out and setting: next, `Nc1nc(-c2ccco2)c2cnn(Cc3ccccc3)c2n1` [PPY22, 1-Benzyl-4-(furan-2-yl)-1H-pyrazolo[3,4-d]pyrimidin-6-amine]: 1.68 ± 0.14 nM. With `Nc1nc(-c2ccco2)c2cnn(Cc3cccc(Cl)c3)c2n1` [PPY, reference compound], in experiment [1] (read-out: Ki(hA2AR)), the Ki was found to be 1 ± 0.09 nM.

These data come from article PMC7956753, “Development of ^18F-Labeled Radiotracers for PET Imaging of the Adenosine A2A Receptor: Synthesis, Radiolabeling and Preliminary Biological Evaluation” (International Journal of Molecular Sciences, 2021).
